The values below are quoted from earlier work in publication PMC3433420 (PLoS ONE, 2012).

Where two headings read alike, the source gives them in different places.

In this data set the target is SH2 and PTB domains. As to conditions: cited from earlier work. From the text: Supplement pone.0044471.s022.xlsx, sheet "Most recent PM interactions" | column: Kd || Supplement pone.0044471.s022.xlsx, sheet "All original PM interactions" | column: Kd
Setting [1] is: protein ABL2, ref Jones et al. 2006 / Kaushansky et al. Mol Biosys 2008 / Kaushansky et al. Chem and Biol 2008.
The mark [2] stands for this setting: protein BLK, ref Jones et al. 2006 / Kaushansky et al. Mol Biosys 2008 / Kaushansky et al. Chem and Biol 2008.

“EDYEpYMNRQRDGd [ErbB3 pY1262, N-terminally rhodamine-labeled 13-mer phosphopeptide]”: the Kd (in general, a measure of binding affinity in units of concentration) was 2000 nM (Protein PIK3R3-NC, original PM interactions, ref Jones et al. 2006 / Kaushansky et al. Chem and Biol 2008); 2000 nM (Protein PLCG2-NC, original PM interactions, ref Jones et al. 2006 / Kaushansky et al. Chem and Biol 2008); 2000 nM (Protein RASA1-NC, original PM interactions, ref Jones et al. 2006 / Kaushansky et al. Chem and Biol 2008); 2000 nM (Protein SLA, original PM interactions, ref Jones et al. 2006 / Kaushansky et al. Chem and Biol 2008); 2000 nM (Protein SOCS5, original PM interactions, ref Jones et al. 2006 / Kaushansky et al. Chem and Biol 2008); 1960 nM (protein ABL2, ref Jones et al. 2006 / Kaushansky et al. Chem and Biol 2008). Further, the dissociation constant Kd (protein RASA1-N, ref Jones et al. 2006 / Kaushansky et al. Chem and Biol 2008) is 1210 nM.
As for “EEKEpYHAEGGKVd [ErbB1 pY869, N-terminally rhodamine-labeled 13-mer phosphopeptide]”, the equilibrium dissociation constant (Kd) under setting [1] is 2000 nM and the dissociation constant (Kd) under setting [2] is 1710 nM.
As to “EEYEpYMNRRRRHd [ErbB3 pY1199, N-terminally rhodamine-labeled 13-mer phosphopeptide]”, the Kd by setting is: (protein ABL2, ref Kaushansky et al. Chem and Biol 2008) 300 nM; (protein BLK, ref Kaushansky et al. Chem and Biol 2008) 1810 nM; (protein FGR, ref Kaushansky et al. Chem and Biol 2008) 1130 nM; (protein PIK3R1-NC, ref Kaushansky et al. Chem and Biol 2008) 1510 nM; (protein PIK3R2-N, ref Kaushansky et al. Chem and Biol 2008) 1350 nM; (protein PIK3R3-N, ref Kaushansky et al. Chem and Biol 2008) 1380 nM. Besides, the Kd was 1460 nM (protein PIK3R3-NC, ref Kaushansky et al. Chem and Biol 2008); 310 nM (protein RASA1-N, ref Kaushansky et al. Chem and Biol 2008); 590 nM (protein YES1, ref Kaushansky et al. Chem and Biol 2008); 1470 nM (protein ZAP70-NC, ref Kaushansky et al. Chem and Biol 2008).
For the substance ELMTFGSKPpYDGIPASEd [ErbB1 915], the equilibrium dissociation constant (Kd) reads like this: (Protein ABL2, most recent PM interactions, ref Jones et al. 2006 / Kaushansky et al. Mol Biosys 2008 / Kaushansky et al. Chem and Biol 2008) 180 nM; (Protein BLK, most recent PM interactions, ref Jones et al. 2006 / Kaushansky et al. Mol Biosys 2008 / Kaushansky et al. Chem and Biol 2008) 1180 nM; (Protein RASA1-N, most recent PM interactions, ref Jones et al. 2006 / Kaushansky et al. Mol Biosys 2008 / Kaushansky et al. Chem and Biol 2008) 1410 nM; (Protein SHB, most recent PM interactions, ref Jones et al. 2006 / Kaushansky et al. Mol Biosys 2008 / Kaushansky et al. Chem and Biol 2008) 1060 nM; (Protein SYK-NC, most recent PM interactions, ref Jones et al. 2006 / Kaushansky et al. Mol Biosys 2008 / Kaushansky et al. Chem and Biol 2008) 1550 nM; (Protein YES1, most recent PM interactions, ref Jones et al. 2006 / Kaushansky et al. Mol Biosys 2008 / Kaushansky et al. Chem and Biol 2008) 330 nM.
As for “ENAEpYLRVAPQSd [ErbB1 pY1197, N-terminally rhodamine-labeled 13-mer phosphopeptide]”, the Kd under setting [1] is 210 nM; the dissociation constant (Kd) under setting [2] was 500 nM; the equilibrium dissociation constant (Kd) (protein CRK, ref Jones et al. 2006 / Kaushansky et al. Mol Biosys 2008 / Kaushansky et al. Chem and Biol 2008) was 1070 nM; the equilibrium dissociation constant (Kd) (protein CRKL, ref Jones et al. 2006 / Kaushansky et al. Mol Biosys 2008 / Kaushansky et al. Chem and Biol 2008) is 1340 nM; the dissociation constant Kd (protein FGR, ref Jones et al. 2006 / Kaushansky et al. Mol Biosys 2008 / Kaushansky et al. Chem and Biol 2008) was 620 nM; the Kd (protein GRB2, ref Jones et al. 2006 / Kaushansky et al. Mol Biosys 2008 / Kaushansky et al. Chem and Biol 2008) was 420 nM. Moreover, the Kd is 500 nM (protein ITK, ref Jones et al. 2006 / Kaushansky et al. Mol Biosys 2008 / Kaushansky et al. Chem and Biol 2008); 170 nM (protein LYN, ref Jones et al. 2006 / Kaushansky et al. Mol Biosys 2008 / Kaushansky et al. Chem and Biol 2008); 500 nM (protein PIK3R1-N, ref Jones et al. 2006 / Kaushansky et al. Mol Biosys 2008 / Kaushansky et al. Chem and Biol 2008); 500 nM (protein PIK3R1-NC, ref Jones et al. 2006 / Kaushansky et al. Mol Biosys 2008 / Kaushansky et al. Chem and Biol 2008); 500 nM (protein PIK3R2-N, ref Jones et al. 2006 / Kaushansky et al. Mol Biosys 2008 / Kaushansky et al. Chem and Biol 2008); 810 nM (protein PIK3R3-NC, ref Jones et al. 2006 / Kaushansky et al. Mol Biosys 2008 / Kaushansky et al. Chem and Biol 2008). Moreover, the Kd was 500 nM (protein PLCG2-NC, ref Jones et al. 2006 / Kaushansky et al. Mol Biosys 2008 / Kaushansky et al. Chem and Biol 2008); 710 nM (protein RASA1-N, ref Jones et al. 2006 / Kaushansky et al. Mol Biosys 2008 / Kaushansky et al. Chem and Biol 2008); 500 nM (protein RASA1-NC, ref Jones et al. 2006 / Kaushansky et al. Mol Biosys 2008 / Kaushansky et al. Chem and Biol 2008); 340 nM (protein SHC1-PTB, ref Jones et al. 2006 / Kaushansky et al. Mol Biosys 2008 / Kaushansky et al. Chem and Biol 2008); 780 nM (protein SHC1, ref Jones et al. 2006 / Kaushansky et al. Mol Biosys 2008 / Kaushansky et al. Chem and Biol 2008); 1030 nM (protein SHC3, ref Jones et al. 2006 / Kaushansky et al. Mol Biosys 2008 / Kaushansky et al. Chem and Biol 2008). Moreover, the Kd (protein SRC, ref Jones et al. 2006 / Kaushansky et al. Mol Biosys 2008 / Kaushansky et al. Chem and Biol 2008) was 380 nM; the Kd (protein SYK-N, ref Jones et al. 2006 / Kaushansky et al. Mol Biosys 2008 / Kaushansky et al. Chem and Biol 2008) was 290 nM; the dissociation constant Kd (protein SYK-NC, ref Jones et al. 2006 / Kaushansky et al. Mol Biosys 2008 / Kaushansky et al. Chem and Biol 2008) is 380 nM; the Kd (protein TEC, ref Jones et al. 2006 / Kaushansky et al. Mol Biosys 2008 / Kaushansky et al. Chem and Biol 2008) is 480 nM; the Kd (protein YES1, ref Jones et al. 2006 / Kaushansky et al. Mol Biosys 2008 / Kaushansky et al. Chem and Biol 2008) was 130 nM.
In the case of “ENPEpYLGLDVPVd [ErbB2 pY1248, N-terminally rhodamine-labeled 13-mer phosphopeptide]”, the dissociation constant Kd reads like this: (Protein ABL2, original PM interactions, ref Jones et al. 2006 / Kaushansky et al. Chem and Biol 2008) 210 nM; (Protein SHC1-PTB, original PM interactions, ref Jones et al. 2006 / Kaushansky et al. Chem and Biol 2008) 280 nM.
With “ENPEpYLSEFSLKd [ErbB4 pY1284, N-terminally rhodamine-labeled 13-mer phosphopeptide]”, the Kd is, setting by setting: (protein ABL2, ref Jones et al. 2006) 220 nM; (protein PIK3R2-NC, all original PM interactions, ref Jones et al. 2006) 2000 nM; (protein PIK3R2-NC, ref Jones et al. 2006) 2000 nM; (protein PIK3R3-NC, all original PM interactions, ref Jones et al. 2006) 2000 nM; (protein PIK3R3-NC, ref Jones et al. 2006) 2000 nM; (protein PLCG1-NC, all original PM interactions, ref Jones et al. 2006) 2000 nM. Moreover, the Kd reads like this: (protein PLCG1-NC, ref Jones et al. 2006) 2000 nM; (protein RASA1-N, ref Jones et al. 2006) 710 nM; (protein SH2B3, all original PM interactions, ref Jones et al. 2006) 2000 nM; (protein SH2B3, ref Jones et al. 2006) 2000 nM; (protein SHC1-PTB, ref Jones et al. 2006) 24 nM; (protein SLA2, all original PM interactions, ref Jones et al. 2006) 2000 nM. For the same substance, the equilibrium dissociation constant (Kd) is 2000 nM (protein SLA2, ref Jones et al. 2006); 1670 nM (protein SYK-NC, ref Jones et al. 2006); 2000 nM (protein VAV2, all original PM interactions, ref Jones et al. 2006); 2000 nM (protein VAV2, ref Jones et al. 2006).
